# System: testosterone-enhanced ventral prostate and seminal vesicle weights in castrated male Sprague Dawley rats
# Test: Ventral Prostate and Seminal Vesicle Weight In Vivo Assay
# Set-up: species or system rat
# Settings: immature castrated rats; once daily for five days, usually orally at 40 mg/kg, with testosterone propionate 2 mg/kg s.c.
# Protocol: Immature (approximately 50 g) castrated male Sprague Dawley rats (Charles River) were treated once daily for five days with test compound (usually given orally at 40 mg/kg in a volume of 0.3 mL, in 30% cyclodextrin or 0.5% methylcellulose vehicle) and with testosterone propionate (given subcutaneously by injection at the nape of the neck at 2 mg/kg, in a volume of 0.1 mL in sesame oil). On the sixth day, the rats were euthanized by asphyxiation in carbon dioxide. Ventral prostates and seminal vesicles were removed and their wet weights determined.
# A test compound was said to be “active” if the non weight adjusted prostate weight was ≦40 mg or the % Inhibition prostate weight, body weight adjusted was ≧40% @2 mg/day dosage.
row,Compound,active / inactive (inhibition of testosterone-enhanced prostate weight)
1,CC(O)(C[S+]([O-])CC(F)(F)F)c1cc2cc([N+](=O)[O-])c(C(F)(F)F)cc2[nH]1 (mixture of isomers) [compound 205],active
2,CC[S+]([O-])CC(C)(O)c1[nH]c2cc(C(F)(F)F)c(C#N)cc2c1C (mixture of isomers) [compound 245],inactive
3,CC[S+]([O-])CC(C)(O)c1[nH]c2cc(C(F)(F)F)c(C#N)cc2c1C (mixture of isomers) [compound 319],active
4,CCSCC(C)(O)c1cc2nc(C#N)ccc2[nH]1 (racemic) [compound 6],inactive
5,CCSCC(C)(O)c1cc2cc([N+](=O)[O-])c(C(F)(F)F)cc2o1 (racemic) [compound 9],inactive
6,CCSCC(C)(O)c1cc2cc(Cl)c(C(F)(F)F)cc2n1S(C)(=O)=O (racemic) [compound 146],inactive
7,CCSCC(C)(O)c1cc2cc([N+](=O)[O-])c(C(F)(F)F)cc2[nH]1 (racemic) [compound 153],inactive
8,CCSCC(O)(CC)c1cc2cc(Cl)c(C(F)(F)F)cc2[nH]1 (racemic) [compound 181],active
9,CC(O)(CSCc1ccccn1)c1cc2cc([N+](=O)[O-])c(C(F)(F)F)cc2[nH]1 (racemic) [compound 204],inactive
10,CCSCC(C)(O)c1cc2cc(C#N)c(Cl)cc2[nH]1 (racemic) [compound 224],active
11,CCSCC(C)(O)c1cc2cc(C#N)c(C(F)(F)F)cc2n1CC(F)(F)F (racemic) [compound 237],active
12,CCSCC(C)(O)c1cc2cc(C#N)c(C(F)(F)F)cc2n1CC (racemic) [compound 243],active
13,CCSCC(C)(O)c1cc2cc(C#N)c(C(F)(F)F)cc2n1COC (racemic) [compound 322],inactive
14,CCSCC(C)(O)c1cc2cc(C#N)c(C(F)(F)F)cc2n1CC#N (racemic) [compound 323],inactive
15,CCSCC(C)(O)c1[nH]c2cc(C(F)(F)F)c(C#N)cc2c1I (racemic) [compound 324],inactive
16,CCSCC(C)(O)c1[nH]c2cc(C(F)(F)F)c(C#N)cc2c1C#C[Si](C)(C)C (racemic) [compound 325],inactive
17,C#Cc1c(C(C)(O)CSCC)[nH]c2cc(C(F)(F)F)c(C#N)cc12 (racemic) [compound 326],inactive
18,CCSCC(O)(c1cc2cc(C#N)c(C(F)(F)F)cc2[nH]1)C(F)(F)F (racemic) [compound 327],active
19,CC(O)(c1[nH]c2cc(C(F)(F)F)c(C#N)cc2c1I)C(F)(F)F (racemic) [compound 330],active
20,CC(O)(c1cc2cc(C#N)c(C(F)(F)F)cc2n1CC#N)C(F)(F)F (racemic) [compound 331],active
21,COCn1c(C(C)(O)C(F)(F)F)cc2cc(C#N)c(C(F)(F)F)cc21 (racemic) [compound 332],active
22,CSCn1c(C(C)(O)C(F)(F)F)cc2cc(C#N)c(C(F)(F)F)cc21 (racemic) [compound 333],active
23,CCSCC(C)(O)c1[nH]c2cc(C(F)(F)F)c(C#N)cc2c1CC (racemic) [compound 344],active
24,CCSCC(C)(O)c1cc2cc(Cl)ccc2[nH]1 (racemic) [compound 353],inactive
25,CCSCC(C)(O)c1cc2cc(C#N)ccc2[nH]1 (racemic) [compound 403],inactive
26,CCS(=O)(=O)CC(C)(O)c1cc2cc(Cl)c(C(F)(F)F)cc2[nH]1 (racemic) [compound 404],active
27,CCS(=O)(=O)CC(C)(O)c1cc2cc(C#N)c(C(F)(F)F)cc2[nH]1 (racemic) [compound 407],inactive

row,Compound,active / inactive (inhibition of testosterone-enhanced prostate weight)
1,CSCC(O)c1cc2cc(C#N)c(C(F)(F)F)cc2[nH]1 (racemic) [compound 408],inactive
2,CCSCC(O)c1cc2cc(C#N)c(C(F)(F)F)cc2[nH]1 (racemic) [compound 410],inactive
3,CCSCC(O)c1[nH]c2cc(C(F)(F)F)c(C#N)cc2c1I (racemic) [compound 411],inactive
4,CCS(=O)(=O)CC(O)c1cc2cc(C#N)c(C(F)(F)F)cc2[nH]1 (racemic) [compound 412],inactive
5,CCSCC(O)c1[nH]c2cc(C(F)(F)F)c(C#N)cc2c1Br (racemic) [compound 413],inactive
6,CCSCC(C)(O)c1cc2cc(C)c(C(F)(F)F)cc2[nH]1 (racemic) [compound 414],inactive
7,CCSCC(C)(O)c1cc2cc(C#N)c(C)c(I)c2[nH]1 (racemic) [compound 415],inactive
8,CCSCC(C)(O)c1cc2cc(C#N)c(OC)cc2[nH]1 (racemic) [compound 445],inactive
9,CCSCC(C)(O)c1cc2cc(C#N)c(C)cc2[nH]1 (racemic) [compound 446],inactive
10,"CCSCC(C)(O)c1cc2cc(Cl)c(C#N)cc2[nH]1 (single isomer, unassigned) [compound 228]",inactive
11,"CCS(=O)(=O)CC(C)(O)c1cc2cc([N+](=O)[O-])c(C(F)(F)F)cc2n1C (single isomer, unassigned) [compound 232]",active
12,"CCSCC(C)(O)c1[nH]c2cc(C(F)(F)F)c([N+](=O)[O-])cc2c1I (single isomer, unassigned) [compound 241]",inactive
13,"CCSCC(C)(O)c1[nH]c2cc(C(F)(F)F)c([N+](=O)[O-])cc2c1I (single isomer, unassigned) [compound 244]",active
14,"CCS(=O)(=O)CC(C)(O)c1cc2cc([N+](=O)[O-])c(C(F)(F)F)cc2n1C (single isomer, unassigned) [compound 250]",active
15,"CCSCC(C)(O)c1c(C)c2cc(C#N)c(C(F)(F)F)cc2n1C (single isomer, unassigned) [compound 317]",inactive
16,"CCSCC(C)(O)c1c(C)c2cc(C#N)c(C(F)(F)F)cc2n1C (single isomer, unassigned) [compound 318]",inactive
17,"CC(O)(c1[nH]c2cc(C(F)(F)F)c(C#N)cc2c1Cl)C(F)(F)F (single isomer, unassigned) [compound 345]",active
18,"CC(O)(c1[nH]c2cc(C(F)(F)F)c(C#N)cc2c1C#C[Si](C)(C)C)C(F)(F)F (single isomer, unassigned) [compound 347]",active
19,"CCSCC(C)(O)c1[nH]c2cc(C(F)(F)F)c(C#N)cc2c1I (single isomer, unassigned) [compound 349]",active
20,"CCc1c(C(C)(O)CS(=O)(=O)CC)[nH]c2cc(C(F)(F)F)c(C#N)cc12 (single isomer, unassigned) [compound 354]",active
21,"CCS(=O)(=O)CC(C)(O)c1cc2cc(C#N)c(C(F)(F)F)cc2[nH]1 (single isomer, unassigned) [compound 397]",inactive
22,N#Cc1cc2cc(C3(O)CCSC3)[nH]c2cc1C(F)(F)F (centres unmarked) [Compound #15],inactive
23,"CC(O)(c1cc2cc(C#N)c(C(F)(F)F)cc2[nH]1)C(F)(F)F (centres unmarked) [Compound #329, 2-(2,2,2-Trifluoro-1-hydroxy-1-methyl-ethyl)-6-trifluoromethyl-1H-indole-5-carbonitrile]",active
24,"CC(O)(c1cc2cc(C#N)c(C(F)(F)F)cc2[nH]1)C(F)(F)F (centres unmarked) [Compound #334, 2-(2,2,2-Trifluoro-1-hydroxy-1-methyl-ethyl)-6-trifluoromethyl-1H-indole-5-carbonitrile]",active
25,"CC(O)(c1cc2cc(C#N)c(C(F)(F)F)cc2[nH]1)C(F)(F)F (centres unmarked) [Compound #335, 2-(2,2,2-Trifluoro-1-hydroxy-1-methyl-ethyl)-6-trifluoromethyl-1H-indole-5-carbonitrile]",active
26,"CC(O)(COc1ccc(C#N)cc1)c1cc2cc(C#N)c(C(F)(F)F)cc2[nH]1 (centres unmarked) [Compound #426, 2-[2-(4-Cyano-phenoxy)-1-hydroxy-1-methyl-ethyl]-6-trifluoromethyl-1H-indole-5-carbonitrile]",inactive

# Reference: patent US8394971B2, “Indole derivatives as selective androgen receptor modulators (SARMS)” (Janssen Pharmaceutica N.V., priority 2004, dated 2013)
